Source: patent US5171741A, “Bacteriochlorophyll-a derivatives useful in photodynamic therapy” (Health Research, Inc., priority 1989, dated 1992)
Like-named read-outs stand apart in the source and are kept apart here.

What was measured:
[1] = as compared to bacteriochlorophyll-a; Beems et al.; cited from earlier work
[2] = cited from earlier work
[3] = Uptake, clearance and metabolism of bchla in tumor and liver (extraction, HPLC); type: in vivo, DBA/2 Ha mice; settings: for concentration at 2 h: 2 h after injection; for concentration at 24 h: 24 h after injection
Protocol: Uptake and clearance of bchla in tumor and liver were measured by extraction of the tumor or liver tissue with 1:1MeOH:CH2 Cl2, followed by HPLC analysis.
bchla Uptake in DBA/2 Ha Mice in SMT-F Tumor

[4] = Chemical and in vivo stability of bchla
SMT-F tumors = assay: Photodynamic treatment of SMT-F tumors in mice with bchla, tumor response; type: in vivo, DBA2/HaD mice
Protocol: DBA2/HaD mice were transplanted with SMT-F tumors. When the subcutaneous tumors reached 4.5-5.5 mm in diameter, the mice, in groups of five, were injected intravenously with the bchla solution of Example 1 in doses of 5-30 mg/kg. At a time 1 hour-5 days later, the tumor, previously shaved and depiliated, plus a margin of 2-3 mm was exposed to radiation of a wavelength in the range 630-800 nm using a Spectraphysics argon dye laser with Exciton LDS751 dye, tunable over the 700-800 nm range or a diode laser--e. g., Spectra Diode emitting in the 750-850 nm range or a Xenon arc lamp filtered with an interference filter to pass 90% of the 700 nm light ±60 nm at dose rates of 75-150 mW/cm^2. When the Xenon system was used, mild hyperthermia resulted (42° C. at 160 mW/cm^2). It is not known whether this temperature rise acts synergistically with bchla as has been shown with HpD and its active fraction.
Tumor response is shown in the table of FIG. 1 for the seventh day after light treatment which indicates regression, and at a time point at least 30 days after light treatment, which would indicate cure, if there had been no regrowth.
As shown in FIG. 1 good response to bchla was obtained, for example, after 2 hours at 5 mg/kg in the 670-790 nm range and after 24 hours after injection with 10 mg/kg and irradiated at 680-780 nm. […]

skin of the foot = assay: Cutaneous photosensitivity of the foot of treated mice versus tumor response (therapeutic ratio); type: in vivo
Protocol: One of the undesirable side effects of photodynamic therapy using certain compounds is cutaneous photosensitivity unrelated to the target biological substrate. Accordingly, the effect of the treatment on the photosensitivity of the foot of the treated mice was measured. The response of the foot was measured as erythema and/or edema (or loss of skin or further damage).

In the case of `CCC1c2cc3[nH]c(c(CC(=O)O)c4nc(cc5[nH]c(cc(n2)C1C)c(C(C)=O)c5C)C(C)C4CCC(=O)O)c(C(=O)O)c3C` (stereo not shown) [bacteriochlorin-a], the Water solubility [1] is given as “enhanced water solubility”.

For `CCC1C2=NC(=Cc3c(C(C)=O)c(C)c4[n]3[Mg][n]3c(c(C)c(C(=O)O)c3=C(CC(=O)O)C3=NC(=C4)C(C)C3CCC(=O)O)=C2)C1C` (stereo not shown) [bacteriochloro-phyllin-a], the Water solubility [1] is given as “enhanced water solubility”.

In the case of `CCC1C2=NC(=Cc3c(C(C)=O)c(C)c4[n]3[Mg][n]3c(c(C)c5c3=C(C3=NC(=C4)C(C)C3CCC(=O)OCC=C(C)CCCC(C)CCCC(C)CCCC(C)C)C(C(=O)OC)C5=O)=C2)C1C` (stereo not shown) [bchla, Bacteriochlorophyll-a], the “Stability towards loss of magnesium ion” value ([2]; dilute acid) is listed as “readily removed”, the Stability towards oxidation ([2]; especially in the presence of light) is listed as “readily oxidized” and the “Levels in tumor and liver maintained” value ([3]; 24 or 48 hours) is listed as “maintained for as long as 24 or 48 hours”. The “Levels in tumor and liver” value ([3]; after 2 hours) was “high levels”, the “Composition of material in tumor” value ([3]; at 24 hours) was “demetallized but still contains phytyl” and the “Composition of material in tumor” value ([3]; at 48 hours) was “mainly material without phytyl and without Mg”. For the same molecule, the “Time of partial conversion to bacteriopheophytin” value ([3]; liver) was 2 h, the concentration at 2 h ([3]; mouse, liver, 10 mg/kg, read-out: Tissue Level, Liver) was 44000 ng/g and the concentration at 24 h ([3]; mouse, liver, 10 mg/kg, uncertain (*), conversion to other components, read-out: Tissue Level, Liver) was 49400 ng/g. It also gave a concentration at 2 h ([3]; mouse, tumor, 10 mg/kg, read-out: Tissue Level, Tumor) of 6140 ng/g, a concentration at 48 h ([3]; mouse, tumor, 10 mg/kg, 48 h after injection, uncertain (*), conversion to other components, read-out: Tissue Level, Tumor) of 10700 ng/g and a concentration at 2 h ([3]; mouse, tumor, 20 mg/kg, read-out: Tissue Level, Tumor) of 16000 ng/g. The concentration at 24 h ([3]; mouse, tumor, 20 mg/kg, uncertain (*), conversion to other components, read-out: Tissue Level, Tumor) was 10000 to 19700 ng/g, the “Time of partial conversion to bacteriopheophytin” value ([3]; tumor) was ≥ 24 h and the “Composition of material in tumor” value ([3]; two hours after injection) was “essentially only bchla with a small amount of material wherein the phytyl group has hydrolyzed”. The Stability in vivo [4] was “sufficiently stable in vivo”, the Tumor response (SMT-F tumors; 5 mg/kg i.v., 2 hours after injection, 670-790 nm range) was “good response” and the Tumor response (SMT-F tumors; 10 mg/kg i.v., 24 hours after injection, irradiated at 680-780 nm) was “good response”. The “Expected persistence of sensitivity to light” value (skin of the foot; expected from the mouse foot response) was “only a few days” and the “Sensitivity of the tumor and the skin of the foot as a function of time” value (skin of the foot; mice, FIG. 3) was “declined concomitantly”.
